Key:
[1] = test system: Human immunodeficiency virus 1; assay: Antiviral activity against HIV1 LAI infected in human CEM-SS cells assessed as reverse transcriptase activity after 5 days by MTT assay; format: functional, organism-based; settings: Human immunodeficiency virus 1, LAI, 120 h
[2] = Cytotoxicity against human CEM-SS cells after 5 days by MTT assay; format: cell-based
[3] = Cytotoxicity against human MT4 cells after 4 days by MTT assay; format: cell-based
[4] = Chemical stability assessed as hydrolysis half life at pH 7.3; format: physicochemical; settings: buffer
[5] = test system: Human immunodeficiency virus 1; assay: Antiviral activity against HIV1 LAI infected in human CEM-SS cells assessed as ratio of IC50 for prodrug to IC50 for parent compound; format: functional
[6] = test system: Human immunodeficiency virus 1; assay: Antiviral activity against HIV1 3B infected in human MT4 cells assessed as reverse transcriptase activity after 5 days by MTT assay; settings: Human immunodeficiency virus 1, 3B, MT4, 120 h
[7] = Apparent permeability from apical to basolateral side of human Caco-2 cells at 175 uM in donor chamber after 3 hrs; format: ADME, cell-based; settings: read-out: permeability
[8] = Apparent permeability from basolateral to apical side of human Caco-2 cells at 175 uM in donor chamber after 3 hrs; format: ADME, cell-based; settings: read-out: permeability
Caco-2 [9] = assay: Permeability from apical to basolateral side of human Caco-2 cells assessed as ratio of prodrug concentration in receiver to prodrug concentration in donor at 177 uM in donor chamber after 3 hrs; format: ADME, cell-based; settings: caco-2, 3 h
[10] = Apparent permeability from apical to basolateral side of human Caco-2 cells at 177 uM in donor chamber after 3 hrs; format: ADME, cell-based; settings: read-out: permeability
Caco-2 [11] = assay: Permeability from basolateral to apical side of human Caco-2 cells assessed as ratio of prodrug concentration in receiver to prodrug concentration in donor at 177 uM in donor chamber after 3 hrs; format: ADME, cell-based; settings: caco-2, 3 h
[12] = Apparent permeability from basolateral to apical side of human Caco-2 cells at 177 uM in donor chamber after 3 hrs; format: ADME, cell-based; settings: read-out: permeability
[13] = test system: Human immunodeficiency virus 1; assay: Antiviral activity against HIV1 3B infected in human MT4 cells assessed as ratio of IC50 for prodrug to IC50 for parent compound
Caco-2 [14] = assay: Permeability from apical to basolateral side of human Caco-2 cells assessed as ratio of prodrug concentration in receiver to prodrug concentration in donor at 330 uM in donor chamber after 3 hrs; format: ADME, cell-based; settings: caco-2, 3 h
[15] = Apparent permeability from apical to basolateral side of human Caco-2 cells at 330 uM in donor chamber after 3 hrs; format: ADME, cell-based; settings: read-out: permeability
Caco-2 [16] = assay: Permeability from basolateral to apical side of human Caco-2 cells assessed as ratio of prodrug concentration in receiver to prodrug concentration in donor at 330 uM in donor chamber after 3 hrs; format: ADME, cell-based; settings: caco-2, 3 h
[17] = Apparent permeability from basolateral to apical side of human Caco-2 cells at 330 uM in donor chamber after 3 hrs; format: ADME, cell-based; settings: read-out: permeability
Caco-2 [18] = assay: Permeability from apical to basolateral side of human Caco-2 cells assessed as ratio of prodrug concentration in receiver to prodrug concentration in donor at 80 uM in donor chamber after 3 hrs; format: ADME, cell-based; settings: caco-2, 3 h
[19] = Apparent permeability from apical to basolateral side of human Caco-2 cells at 80 uM in donor chamber after 3 hrs; format: ADME, cell-based; settings: read-out: permeability
Caco-2 [20] = assay: Permeability from basolateral to apical side of human Caco-2 cells assessed as ratio of prodrug concentration in receiver to prodrug concentration in donor at 80 uM in donor chamber after 3 hrs; format: ADME, cell-based; settings: caco-2, 3 h
[21] = Apparent permeability from basolateral to apical side of human Caco-2 cells at 80 uM in donor chamber after 3 hrs; format: ADME, cell-based; settings: read-out: permeability
Caco-2 [22] = assay: Permeability from apical to basolateral side of human Caco-2 cells assessed as ratio of prodrug concentration in receiver to prodrug concentration in donor at 26.5 uM in donor chamber after 3 hrs; format: ADME, cell-based; settings: caco-2, 3 h
[23] = Apparent permeability from apical to basolateral side of human Caco-2 cells at 26.5 uM in donor chamber after 3 hrs; format: ADME, cell-based; settings: read-out: permeability
Caco-2 [24] = assay: Permeability from basolateral to apical side of human Caco-2 cells assessed as ratio of prodrug concentration in receiver to prodrug concentration in donor at 26.5 uM in donor chamber after 3 hrs; format: ADME, cell-based; settings: caco-2, 3 h
[25] = Apparent permeability from basolateral to apical side of human Caco-2 cells at 26.5 uM in donor chamber after 3 hrs; format: ADME, cell-based; settings: read-out: permeability
Caco-2 [26] = assay: Permeability from basolateral to apical side of human Caco-2 cells assessed as ratio of prodrug concentration in receiver to prodrug concentration in donor at 185 uM in donor chamber after 3 hrs; format: ADME, cell-based; settings: caco-2, 3 h
[27] = Apparent permeability from basolateral to apical side of human Caco-2 cells at 185 uM in donor chamber after 3 hrs; format: ADME, cell-based; settings: read-out: permeability
[28] = Apparent permeability from apical to basolateral side of human Caco-2 cells at 9.4 uM in donor chamber after 3 hrs; format: ADME, cell-based; settings: read-out: permeability
[29] = Apparent permeability from basolateral to apical side of human Caco-2 cells at 9.4 uM in donor chamber after 3 hrs; format: ADME, cell-based; settings: read-out: permeability
Caco-2 [30] = assay: Permeability from basolateral to apical side of human Caco-2 cells assessed as ratio of prodrug concentration in receiver to prodrug concentration in donor at 9.4 uM in donor chamber after 3 hrs; format: ADME, cell-based; settings: caco-2, 3 h
Caco-2 [31] = assay: Permeability from apical to basolateral side of human Caco-2 cells assessed as ratio of prodrug concentration in receiver to prodrug concentration in donor at 9.4 uM in donor chamber after 3 hrs; format: ADME, cell-based; settings: caco-2, 3 h
Caco-2 [32] = assay: Permeability from basolateral to apical side of human Caco-2 cells assessed as ratio of prodrug concentration in receiver to prodrug concentration in donor at 150 uM in donor chamber after 3 hrs; format: ADME, cell-based; settings: caco-2, 3 h
[33] = Apparent permeability from basolateral to apical side of human Caco-2 cells at 150 uM in donor chamber after 3 hrs; format: ADME, cell-based; settings: read-out: permeability
Caco-2 [34] = assay: Permeability from apical to basolateral side of human Caco-2 cells assessed as ratio of prodrug concentration in receiver to prodrug concentration in donor at 21 uM in donor chamber after 3 hrs; format: ADME, cell-based; settings: caco-2, 3 h
[35] = Apparent permeability from apical to basolateral side of human Caco-2 cells at 21 uM in donor chamber after 3 hrs; format: ADME, cell-based; settings: read-out: permeability
Caco-2 [36] = assay: Permeability from basolateral to apical side of human Caco-2 cells assessed as ratio of prodrug concentration in receiver to prodrug concentration in donor at 21 uM in donor chamber after 3 hrs; format: ADME, cell-based; settings: caco-2, 3 h
[37] = Apparent permeability from basolateral to apical side of human Caco-2 cells at 21 uM in donor chamber after 3 hrs; format: ADME, cell-based; settings: read-out: permeability

| half-life [4] [h] | Compound | IC50 [1] [nM] | CC50 at 120 h [2] [nM] | CC50 at 96 h [3] [nM] | Ratio IC50 [5] | IC50 [6] [nM] | Ratio IC50 [13] | also measured |
| --- | --- | --- | --- | --- | --- | --- | --- | --- |
| 72 | Cc1c(OC(=O)CCCCCNC(=O)[C@@H](N)C(C)C)cccc1C(=O)N[C@@H](CSc1ccccc1)[C@H](O)CN1C[C@H]2CCCC[C@H]2C[C@H]1C(=O)NC(C)(C)C.O=C(O)C(F)(F)F | 94 | > 10000 | 10000 | 47 | 230 |  |  |
| 40 | CC(C)[C@H](N)C(=O)O[C@H](CN1C[C@H]2CCCC[C@H]2C[C@H]1C(=O)NC(C)(C)C)[C@H](Cc1ccccc1)NC(=O)[C@H](CC(N)=O)NC(=O)c1ccc2ccccc2n1.O=C(O)C(F)(F)F | 140 | > 10000 | > 10000 | 16 | 290 | 16 | Activity (Caco-2 [34]): 6.1%; Papp A→B at 3 h, 21 µM [35]: 2.32 ×10⁻⁶ cm/s; Activity (Caco-2 [36]): 9.6%; Papp B→A at 3 h, 21 µM [37]: 3.43 ×10⁻⁶ cm/s |

More lines, now with the values behind:

| Compound | half-life [4] [h] | IC50 [1] [nM] | CC50 at 120 h [2] [nM] | CC50 at 96 h [3] [nM] | Ratio IC50 [5] | IC50 [6] [nM] | Ratio IC50 [13] | also measured |
| --- | --- | --- | --- | --- | --- | --- | --- | --- |
| CC(C)(C)NC(=O)[C@@H]1CN(Cc2cccnc2)CCN1C[C@@H](O)C[C@@H](Cc1ccccc1)C(=O)N[C@H]1c2ccccc2C[C@H]1O.O=S(=O)(O)O [INDINAVIR SULFATE] |  | ≤ 10 | > 100000 | > 100000 |  | 22 |  | Papp A→B at 3 h, 175 µM [7]: 1.03 ×10⁻⁶ cm/s; Papp B→A at 3 h, 175 µM [8]: 15.5 ×10⁻⁶ cm/s |
| Cc1c(OC(=O)CCCCCNC(=O)[C@@H](N)C(C)C)cccc1C(=O)N[C@@H](CSc1ccccc1)[C@@H](CN1C[C@H]2CCCC[C@H]2C[C@H]1C(=O)NC(C)(C)C)OC(=O)CCCCCNC(=O)[C@H](N)C(C)C.O=C(O)C(F)(F)F.O=C(O)C(F)(F)F | 82 | 15500 | 5000 | 4800 | 7750 |  |  |  |
| CC(C)[C@H](N)C(=O)O[C@@H](C[C@@H](Cc1ccccc1)C(=O)N[C@H]1c2ccccc2C[C@H]1O)CN1CCN(Cc2cccnc2)C[C@H]1C(=O)NC(C)(C)C.O=C(O)C(F)(F)F | 68 | 90 | > 100000 | 100000 | >=9 | 27 | 1 | Activity (Caco-2 [9]): 14%; Papp A→B at 3 h, 177 µM [10]: 5.13 ×10⁻⁶ cm/s; Activity (Caco-2 [11]): 14.6%; Papp B→A at 3 h, 177 µM [12]: 7.08 ×10⁻⁶ cm/s |
| CC(C)[C@H](N)C(=O)O[C@@H]1Cc2ccccc2[C@@H]1NC(=O)[C@H](Cc1ccccc1)C[C@H](O)CN1CCN(Cc2cccnc2)C[C@H]1C(=O)NC(C)(C)C.O=C(O)C(F)(F)F | 46 | 17 | > 100000 | > 100000 | >=1.7 | 150 | 7 | Activity (Caco-2 [14]): 15.6%; Papp A→B at 3 h, 330 µM [15]: 6.44 ×10⁻⁶ cm/s; Activity (Caco-2 [16]): 18.1%; Papp B→A at 3 h, 330 µM [17]: 7.37 ×10⁻⁶ cm/s |
| Cc1c(O)cccc1C(=O)N[C@@H](CSc1ccccc1)[C@H](O)CN1C[C@H]2CCCC[C@H]2C[C@H]1C(=O)NC(C)(C)C |  | 2 |  |  |  |  |  | Activity (Caco-2 [18]): 2.7%; Papp A→B at 3 h, 80 µM [19]: 1.03 ×10⁻⁶ cm/s; Activity (Caco-2 [20]): 6.3%; Papp B→A at 3 h, 80 µM [21]: 2.51 ×10⁻⁶ cm/s |
| CC(C)[C@@H](N)C(=O)NCCCCCC(=O)O[C@H](CN1C[C@H]2CCCC[C@H]2C[C@H]1C(=O)NC(C)(C)C)[C@H](Cc1ccccc1)NC(=O)[C@H](CC(N)=O)NC(=O)c1ccc2ccccc2n1.O=C(O)C(F)(F)F.O=C(O)C(F)(F)F.O=C(O)C(F)(F)F | 60 | 175 | 9000 | 5300 | 19 | 340 | 19 | Activity (Caco-2 [22]): 2.2%; Activity (Caco-2 [14]): 15.6%; Activity (Caco-2 [9]): 14%; Papp A→B at 3 h, 26.5 µM [23]: 0.58 ×10⁻⁶ cm/s; Activity (Caco-2 [24]): 4.8%; Activity (Caco-2 [16]): 18.1%; Activity (Caco-2 [11]): 14.6%; Papp B→A at 3 h, 26.5 µM [25]: 1.87 ×10⁻⁶ cm/s |
| CC(C)[C@H](N)C(=O)NCCCCCC(=O)O[C@@H]1Cc2ccccc2[C@@H]1NC(=O)[C@H](Cc1ccccc1)C[C@H](O)CN1CCN(Cc2cccnc2)C[C@H]1C(=O)NC(C)(C)C.O=C(O)C(F)(F)F | 72 | 36 | > 10000 | 47000 | >=3.6 | 230 | 10 | Activity (Caco-2 [26]): 9%; Papp B→A at 3 h, 185 µM [27]: 2.92 ×10⁻⁶ cm/s |
| CC(C)(C)NC(=O)[C@@H]1C[C@@H]2CCCC[C@@H]2CN1C[C@@H](O)[C@H](Cc1ccccc1)NC(=O)[C@H](CC(N)=O)NC(=O)c1ccc2ccccc2n1 |  | 9 | > 10000 | > 10000 |  | 18 |  | Papp A→B at 3 h, 9.4 µM [28]: 3.98 ×10⁻⁶ cm/s; Papp B→A at 3 h, 9.4 µM [29]: 1.1 ×10⁻⁶ cm/s; Activity (Caco-2 [30]): 10.3%; Activity (Caco-2 [31]): 2.6% |
| CC(C)[C@H](N)C(=O)NCCCCCC(=O)O[C@@H](C[C@@H](Cc1ccccc1)C(=O)N[C@H]1c2ccccc2C[C@H]1OC(=O)CCCCCNC(=O)[C@@H](N)C(C)C)CN1CCN(Cc2cccnc2)C[C@H]1C(=O)NC(C)(C)C.O=C(O)C(F)(F)F.O=C(O)C(F)(F)F | 80 | 640 | > 50000 | 45000 | >=64 | 2950 | 134 | Activity (Caco-2 [32]): 2.1%; Papp B→A at 3 h, 150 µM [33]: 6.26 ×10⁻⁶ cm/s |
